# Measured values from patent publication US20180155757A1, “IDENTIFICATION OF BACTERIA THAT ARE RESISTANT TO CARBAPENEMS BY MEMBRANE IMPERVIOUSNESS” (BIOMÉRIEUX, priority 2015, published 2018).
# Like-named read-outs stand apart in the source and are kept apart here.
# What was measured:
# [1] = system: Enterobacter aerogenes EA 15038 (porin+); assay: Etest MIC of indicator carbapenems on MH II agar without/with PMBN; type: cell-based
# Procedure: (§1) The determinations of antibiotic MIC were carried out on solid culture media with the Etest® method. To do this, Etest® strips (bioMérieux, France) were used: • Etest® Imipenem IM 32, and • Etest® Ertapenem ETP 32, and also solid culture media, differing from one another by virtue of their non-inhibitory concentrations of PMBN.
# (§2) These solid culture media are prepared in Petri dishes (0=145 mm; V=50 ml) on a base of MH II Agar (Becton Dickinson®, United States), more or less supplemented with PMBN. The PMBN concentrations range from 0 up to concentrations equivalent to one fifth of the MIC of PMBN (⅕ MICPMBN).
# (§3) Using a swab and the Retro C80™ rota-plater (bioMérieux, France), the culture media were inoculated with the bacteria, originating from an inoculum of 0.5 McFarland, prepared in 0.85% NaCl solution from colonies subcultured the day before on MH II agar.
# (§4) The various Etest® strips are then deposited on the surface of the culture media. After 16 to 20 hours of incubation at 35° C., the MICS were read.
# [2] = system: Enterobacter aerogenes EA 2 (porin+); assay: as above; type: cell-based; conditions: Klebsiella aerogenes
# Procedure: as §1, §2, §3, §4
# [3] = system: C. freundii 0403012; assay: as above; type: cell-based
# Procedure: as §1, §2, §3, §4
# (§5) To do this, imipenem and ertapenem were used as indicator carbapenems. Non-inhibitory concentrations of PMBN, equivalent to concentrations of one tenth ( 1/10), one eighth (⅛) and one fifth (⅕) of the MIC of PMBN, were applied.
# [4] = system: E. cloacae 1008073 (VIM-1 producer); assay: as above; type: cell-based
# Procedure: as §1, §2, §3, §4, §5
# [5] = system: E. cloacae 1101172 (NDM producer); assay: as above; type: cell-based
# Procedure: as §1, §2, §3, §4, §5
# [6] = system: E. cloacae 9304026; assay: as above; type: cell-based
# Procedure: as §1, §2, §3, §4, §5
# [7] = system: E. coli 0506040 (VIM-1 producer); assay: as above; type: cell-based
# Procedure: as §1, §2, §3, §4, §5
# [8] = system: E. coli 1008077 (VIM-1 producer); assay: as above; type: cell-based
# Procedure: as §1, §2, §3, §4, §5
# [9] = system: E. coli 1012292 (KPC-2 producer); assay: as above; type: cell-based
# Procedure: as §1, §2, §3, §4, §5
# [10] = system: K. pneumoniae 0404024 (VIM-1 producer); assay: as above; type: cell-based
# Procedure: as §1, §2, §3, §4, §5
# [11] = system: K. pneumoniae 1108001 (KPC-2 producer); assay: as above; type: cell-based
# Procedure: as §1, §2, §3, §4, §5
# [12] = system: K. pneumoniae 1108002 (KPC-3 producer); assay: as above; type: cell-based
# Procedure: as §1, §2, §3, §4, §5
# [13] = system: K. pneumoniae 1108007 (VIM-1 producer); assay: as above; type: cell-based
# Procedure: as §1, §2, §3, §4, §5
# [14] = system: S. marcescens 1008175 (IMP-1 producer); assay: as above; type: cell-based
# Procedure: as §1, §2, §3, §4, §5
# [15] = system: carbapenem-resistant bacterial strains
# Excerpt: For each strain tested, each PMBN concentration and each indicator carbapenem, the MIC measured is compared to that obtained in the absence of PMBN. In the light of the possible difference in MIC values, a prognosis for the mechanism of resistance developed by the strain tested is established by applying the following general premise: A decrease in MICIM/ETP in the presence of PMBN is an indication of carbapenem resistance by membrane impermeability. In any other case, another mechanism of resistance is implicated.
# For the purposes of verifying the accuracy of the prognoses established and the relevance of the general premise mentioned above: • each strain was tested by Western blot with the view to detection of porins (in the case in point, of the OmpF and OmpC isoforms), and • for some of the strains tested, in particular those for which there remains a doubt as to the mechanism of resistance developed (prognosis established in contradiction with the results of the porin detection by Western blot), a test for detecting carbapenemases by means of the RAPIDEC® CARBA NP kit (bioMérieux, France) was also carried out.
# As regards the results thus obtained, the characterization of the strains termed carbapenem resistant by membrane impermeability is established either by the absence of porins detected by Western blot, or by carbapenem resistance that is not linked to the presence of carbapenemase, verified by a molecular method (PCR) and/or by a phenotypic method (RAPIDEC® CARBA NP).
# A second method of interpretation of the results compiled in table 3 is proposed here. The prognosis system is based on the following “refined” premise: A decrease in MICIM/ETP, in the presence of PMBN, by at least a factor of 4 (that is to say with a difference in MIC of 2 doubling dilutions), is the signal of carbapenem resistance by membrane impermeability. If not, another mechanism of resistance is implicated.
# [16] = Klebsiella aerogenes, EA 15038 (porin+), [PMBN] 0, read-out: MIC
# [17] = Klebsiella aerogenes, EA 15038 (porin+), [PMBN] MIC/5, read-out: MIC
# [18] = EA 2 (porin+), [PMBN] 0, read-out: MIC
# [19] = EA 2 (porin+), [PMBN] MIC/8, read-out: MIC
# [20] = EA 2 (porin+), [PMBN] MIC/10, read-out: MIC
structure (smiles),measurement,setting,value
"C[C@@H](O)[C@H]1C(=O)N2C(C(=O)O)=C(S[C@@H]3CN[C@H](C(=O)Nc4cccc(C(=O)O)c4)C3)[C@H](C)[C@H]12 [ETP, ertapenem]",MIC,"[1]; EA 15038 (porin+), [PMBN] MIC/8",0.125 µg/mL
same,MIC,[1]; Klebsiella aerogenes,0.125 µg/mL
same,MIC,[1]; [16],0.25 µg/mL
same,MIC,[1]; [17],0.06 µg/mL
same,MIC,[2],0.125 µg/mL
same,MIC,[2]; [18],0.03 µg/mL
same,MIC,[2]; [19],0.25 µg/mL
same,MIC,[2]; [20],0.25 µg/mL
same,MIC,[3]; [PMBN] 0,8 µg/mL
same,MIC,[3]; [PMBN] MIC/5,4 µg/mL
same,MIC,[3]; [PMBN] MIC/8,4 µg/mL
same,MIC,[3]; [PMBN] MIC/10,8 µg/mL
same,MIC,[4]; [PMBN] 0,2 µg/mL
same,MIC,[4]; [PMBN] MIC/5,1 µg/mL
same,MIC,[4]; [PMBN] MIC/8,1 µg/mL
same,MIC,[4]; [PMBN] MIC/10,1 µg/mL
same,MIC,[5]; [PMBN] 0,4 µg/mL
same,MIC,[5]; [PMBN] MIC/5,4 µg/mL
same,MIC,[5]; [PMBN] MIC/8,8 µg/mL
same,MIC,[5]; [PMBN] MIC/10,8 µg/mL
same,MIC,[6]; [PMBN] 0,16 µg/mL
same,MIC,[6]; [PMBN] MIC/5,8 µg/mL
same,MIC,[6]; [PMBN] MIC/8,8 µg/mL
same,MIC,[6]; [PMBN] MIC/10,4 µg/mL
same,MIC,[7]; [PMBN] 0,0.25 µg/mL
same,MIC,[7]; [PMBN] MIC/5,0.25 µg/mL
same,MIC,[7]; [PMBN] MIC/8,0.25 µg/mL
same,MIC,[7]; [PMBN] MIC/10,0.25 µg/mL
same,MIC,[8]; [PMBN] 0,8 µg/mL
same,MIC,[8]; [PMBN] MIC/5,4 µg/mL
same,MIC,[8]; [PMBN] MIC/8,4 µg/mL
same,MIC,[8]; [PMBN] MIC/10,4 µg/mL
same,MIC,[9]; [PMBN] 0,8 µg/mL
same,MIC,[9]; [PMBN] MIC/5,2 µg/mL
same,MIC,[9]; [PMBN] MIC/8,4 µg/mL
same,MIC,[9]; [PMBN] MIC/10,4 µg/mL
same,MIC,[10]; [PMBN] 0,128 µg/mL
same,MIC,[10]; [PMBN] MIC/5,16 µg/mL
same,MIC,[10]; [PMBN] MIC/8,32 µg/mL
same,MIC,[10]; [PMBN] MIC/10,32 µg/mL
same,MIC,[11]; [PMBN] 0,16 µg/mL
same,MIC,[11]; [PMBN] MIC/5,8 µg/mL
same,MIC,[11]; [PMBN] MIC/8,8 µg/mL
same,MIC,[11]; [PMBN] MIC/10,16 µg/mL
same,MIC,[12]; [PMBN] 0,16 µg/mL
same,MIC,[12]; [PMBN] MIC/5,64 µg/mL
same,MIC,[12]; [PMBN] MIC/8,64 µg/mL
same,MIC,[12]; [PMBN] MIC/10,64 µg/mL
same,MIC,[13]; [PMBN] 0,8 µg/mL
same,MIC,[13]; [PMBN] MIC/5,8 µg/mL
same,MIC,[13]; [PMBN] MIC/8,16 µg/mL
same,MIC,[13]; [PMBN] MIC/10,16 µg/mL
same,MIC,[14]; [PMBN] 0,256 µg/mL
same,MIC,[14]; [PMBN] MIC/5,256 µg/mL
same,MIC,[14]; [PMBN] MIC/8,256 µg/mL
same,MIC,[14]; [PMBN] MIC/10,256 µg/mL
same,reliability of a negative prognosis with regard to resistance by membrane impermeability,[15]; general premise,90%
same,reliability of a positive prognosis with regard to resistance by membrane impermeability,[15]; general premise,66%
same,reliability of a negative prognosis with regard to resistance by membrane impermeability,[15]; refined premise,85%
same,reliability of a positive prognosis with regard to resistance by membrane impermeability,[15]; refined premise,86%
"C[C@@H](O)[C@H]1C(=O)N2C(C(=O)O)=C(SCCN=CN)C[C@H]12 [IM, imipenem]",MIC,[1]; [16],0.25 µg/mL
same,MIC,[1]; [17],0.25 µg/mL
same,MIC,"[1]; Klebsiella aerogenes, EA 15038 (porin+), [PMBN] MIC/8, read-out: MIC",0.5 µg/mL
same,MIC,"[1]; Klebsiella aerogenes, EA 15038 (porin+), [PMBN] MIC/10, read-out: MIC",0.5 µg/mL
same,MIC,[2]; [18],0.03 µg/mL
same,MIC,"[2]; EA 2 (porin+), [PMBN] MIC/5, read-out: MIC",0.03 µg/mL
same,MIC,[2]; [19],0.06 µg/mL
same,MIC,[2]; [20],0.06 µg/mL
same,MIC,[3]; [PMBN] 0,4 µg/mL
same,MIC,[3]; [PMBN] MIC/5,1 µg/mL
same,MIC,[3]; [PMBN] MIC/8,1 µg/mL
same,MIC,[3]; [PMBN] MIC/10,2 µg/mL
same,MIC,[4]; [PMBN] 0,0.25 µg/mL
same,MIC,[4]; [PMBN] MIC/5,0.25 µg/mL
same,MIC,[4]; [PMBN] MIC/8,0.25 µg/mL
same,MIC,[4]; [PMBN] MIC/10,0.25 µg/mL
same,MIC,[5]; [PMBN] 0,4 µg/mL
same,MIC,[5]; [PMBN] MIC/5,4 µg/mL
same,MIC,[5]; [PMBN] MIC/8,16 µg/mL
same,MIC,[5]; [PMBN] MIC/10,8 µg/mL
same,MIC,[6]; [PMBN] 0,8 µg/mL
same,MIC,[6]; [PMBN] MIC/5,4 µg/mL
same,MIC,[6]; [PMBN] MIC/8,4 µg/mL
same,MIC,[6]; [PMBN] MIC/10,4 µg/mL
same,MIC,[7]; [PMBN] 0,4 µg/mL
same,MIC,[7]; [PMBN] MIC/5,4 µg/mL
same,MIC,[7]; [PMBN] MIC/8,4 µg/mL
same,MIC,[7]; [PMBN] MIC/10,4 µg/mL
same,MIC,[8]; [PMBN] 0,16 µg/mL
same,MIC,[8]; [PMBN] MIC/5,16 µg/mL
same,MIC,[8]; [PMBN] MIC/8,16 µg/mL
same,MIC,[8]; [PMBN] MIC/10,8 µg/mL
same,MIC,[9]; [PMBN] 0,8 µg/mL
same,MIC,[9]; [PMBN] MIC/5,1 µg/mL
same,MIC,[9]; [PMBN] MIC/8,4 µg/mL
same,MIC,[9]; [PMBN] MIC/10,4 µg/mL
same,MIC,[10]; [PMBN] 0,64 µg/mL
same,MIC,[10]; [PMBN] MIC/5,64 µg/mL
same,MIC,[10]; [PMBN] MIC/8,64 µg/mL
same,MIC,[10]; [PMBN] MIC/10,64 µg/mL
same,MIC,[11]; [PMBN] 0,8 µg/mL
same,MIC,[11]; [PMBN] MIC/5,4 µg/mL
same,MIC,[11]; [PMBN] MIC/8,8 µg/mL
same,MIC,[11]; [PMBN] MIC/10,8 µg/mL
same,MIC,[12]; [PMBN] 0,16 µg/mL
same,MIC,[12]; [PMBN] MIC/5,16 µg/mL
same,MIC,[12]; [PMBN] MIC/8,16 µg/mL
same,MIC,[12]; [PMBN] MIC/10,16 µg/mL
same,MIC,[13]; [PMBN] 0,32 µg/mL
same,MIC,[13]; [PMBN] MIC/5,16 µg/mL
same,MIC,[13]; [PMBN] MIC/8,16 µg/mL
same,MIC,[13]; [PMBN] MIC/10,16 µg/mL
same,MIC,[14]; [PMBN] 0,128 µg/mL
same,MIC,[14]; [PMBN] MIC/5,256 µg/mL
same,MIC,[14]; [PMBN] MIC/8,256 µg/mL
same,MIC,[14]; [PMBN] MIC/10,128 µg/mL
same,reliability of a negative prognosis with regard to resistance by membrane impermeability,[15]; general premise,87%
same,reliability of a positive prognosis with regard to resistance by membrane impermeability,[15]; general premise,73%
same,reliability of a negative prognosis with regard to resistance by membrane impermeability,[15]; refined premise,77%
same,reliability of a positive prognosis with regard to resistance by membrane impermeability,[15]; refined premise,95%
